# Source: patent US5514648A, “Fungicidally active compounds” (priority 1990, dated 1996)
# Where a SMILES comes first, the peptide text is derived from it. [ ]: non-standard residue; d: D form. NMeI = CC[C@H](C)[C@H](NC)C(=O)O; NMeD = CN[C@@H](CC(=O)O)C(=O)O; NMeV = CN[C@H](C(=O)O)C(C)C; Pip = O=C(O)[C@@H]1CCCCN1; dLac = C[C@@H](O)C(=O)O
# What was measured:
# Deuterornycetous species = assay: Fungicidal activity, mycelial growth on potato dextrose agar; assay type: cell-based, Deuterornycetes; conditions: 25 to 0.0016 μg a.i. per ml agar
# Experimental: (§1) Experiments were carried out to determine the potency of the compound of formula IV towards various fungi. The active ingredient was dissolved in 60% ethanol and added to cooled potato dextrose agar to give final concentrations of 25, 5, 1, 0.2, 0.04 and 0.0016 μg a.i. per ml agar, respectively. Control dishes contained no active ingredient.
# (§2) 10 ml Agar was poured into 9 cm petri dishes and each concentration was inoculated with actively growing mycelium of the fungal isolates tested for. The dishes were incubated at the optimum temperature for growth of the isolates for 3 to 6 days after which time the growth was measured in mm and compared to the controls.
# (§3) The test isolates covered a broad range of fungi within the Oomycetes, the Ascomycetes, the Basidiornycetes, the Deuterornycetes, and the Zygomycetes.
# C. beticola = assay: as above; assay type: cell-based, Cercospora beticola; conditions: 25 to 0.0016 μg a.i. per ml agar, 3 to 6 days
# Experimental: as §1, §2, §3
# Botrytis cinerea [1] = assay: Field trial, Botrytis cinerea on grapes (Ugni Blanc); assay type: in vivo; conditions: 100, 300, and 900 g a.i./ha, three sprayings
# Excerpt: Field trial performed in Bordeaux, France, in accordance with CEB Method No. 37. A plot consisted of 15 plants in one row and six replicates were used. The active compound was used in a test formulation containing approximately 10% active ingredient (a.i.). Three concentrations of active compound were applied: 100, 300, and 900 g a.i./ha. The water volume was 300 l/ha. The grapes were sprayed at the following growth stages: T1, end of formation of bunches of grapes; T2, beginning of ripening of grapes; and T3, 3 to 4 weeks before harvest. The commercial fungicides […]® and BASULTRA® were used as standard references. The assessment was performed by estimating the intensity and frequency of the Botrytis cinerea attack after the appearance of the disease.
# [2] = Temperature and pH stability (HPLC); assay type: physicochemical; conditions: buffer, 16 hours
# Experimental: Procedure: The compound BK202 was solubilized in buffer at the pHs indicated in FIG. 1, and then placed at 25°-55° C. for 16 hours. The buffers used were phosphate-citrate (T. C. McIlvaine, J. Biol. Chem. 49,183(1921), in the pH range 2.5-7 and from pH 7-9.5 is used TRIS 0.05 M. After 16 hours, the samples were filtered on a membrane filter 0.45 μm, and then analyzed by the HPLC method.
# However, this may reside in experimental error.
# Column: Spherisorb Hexyl 5 μm, 140 mm×4.6 mm
# Eluent: 55% Acetonitrile +0.1% Trifluor acetic Acid
# Retention time: ca. 6.3 minutes
# Oornycetous species = assay: Fungicidal activity, mycelial growth on potato dextrose agar; assay type: cell-based, Oomycetes; conditions: 25 to 0.0016 μg a.i. per ml agar
# Experimental: as §1, §2, §3
# Botrytis cinerea [3] = assay: Green house trial, Botrytis cinerea on tomatoes (Matador); assay type: in vivo; conditions: at all the tested concentrations 0.01%, 0.03%, and 0.09% a.i.
# Excerpt: Green house trial performed in Lyngby, Denmark.
# A plot consisted of 7 plants (approximately 12 weeks old, 1 m high) and three replicates were used. The plants were kept in a plastic "tent" to maintain a high humidity. Before spraying the plants 20 leaves per plant were mechanically injured to improve the attack of Botrytis cinerea. The active compound was used in a test formulation containing approximately 10% active ingredient (a.i.). Three concentrations of active compound were applied: 0.01%, 0.03%, and 0.09% a.i. The water volume was 770 ml/plot.
# The tomatoes were sprayed just after wounding the leaves. 24 hours after fungicide treatment an artificial inoculation was done by spraying spores of B. cinerea suspended in 30% orange juice on the plants.
# The commercial fungicide RONILAN®was used as standard reference.
# The assessment was performed by counting the number of attacks on leaves, stalks, fruits, and flower buds.
# S. sclerotiorum = assay: Fungicidal activity, mycelial growth on potato dextrose agar; assay type: cell-based, Sclerotinia sclerotiorum; conditions: in as low concentrations as 0.0016 μg/ml, 3 to 6 days
# Experimental: as §1, §2, §3
# [4] = Toxicology IC50, Chemiluminescent; conditions: estimated
# Experimental: Based on these tests the IC50 values for BK 202 were estimated as: Chemiluminescent >10 μg/ml
# Basidiornycetous species = assay: Fungicidal activity, mycelial growth on potato dextrose agar; assay type: cell-based, Basidiornycetes; conditions: 25 to 0.0016 μg a.i. per ml agar
# Experimental: as §1, §2, §3
# A. fumigatus = assay: as above; assay type: cell-based, Aspergillus fumigatus; conditions: in as low concentrations as 0.0016 μg/ml, 3 to 6 days
# Experimental: as §1, §2, §3
# P. sorghina = assay: as above; assay type: cell-based, Phoma sorghina; conditions: 25 to 0.0016 μg a.i. per ml agar, 3 to 6 days
# Experimental: as §1, §2, §3
# M. fructigena = assay: as above; assay type: cell-based, Monilinia fructigena; conditions: in as low concentrations as 0.0016 μg/ml, 3 to 6 days
# Experimental: as §1, §2, §3
# Ascomycetous species = assay: as above; assay type: cell-based, Ascomycetes; conditions: 25 to 0.0016 μg a.i. per ml agar
# Experimental: as §1, §2, §3
# F. lycopersici = assay: as above; assay type: cell-based, Fusarium lycopersici; conditions: 25 to 0.0016 μg a.i. per ml agar, 3 to 6 days
# Experimental: as §1, §2, §3
# Toxicology IC50, ATP = conditions: estimated
# Experimental: Based on these tests the IC50 values for BK 202 were estimated as: ATP >10 μg/ml;
# Botrytis cinerea [5] = assay: Field trial, Botrytis cinerea on strawberries (Senga-Sengana); assay type: in vivo; conditions: 100, 300, and 900 g a.i./ha, four sprayings
# Excerpt: Field trial performed in Funen, Denmark, in accordance with the EPPO guidelines (Guideline for the Biological Evaluation of Fungicities. Botrytis cinerea on Strawberries). The plot size was 20 m^2 and three replicates were used. The active compound was used in a test formulation containing approximately 10% active ingredient (a.i.). Three concentrations of active compound were applied: 100, 300, and 900 g a.i./ha. The spraying volume was 1200 l/ha. The strawberries were sprayed at the following growth stages: T1, onset of flowering; T2 : 10% flowering; T3, 50% flowering; and T4, 80% flowering. The commercial fungicide ROVRAL® was used as standard reference. The assessment was performed by counting and weighing healthy and infected strawberries, respectively.
# [6] = in vitro testing of dermal irritation (Skintex)
# Excerpt: The toxicity of BK 202 was investigated in the following tests using the compound of formula IV in crystaline form: […]
# Ames spot tests and in vitro testing of dermal irritation (Skintex®).
# A. alternata = assay: Fungicidal activity, mycelial growth on potato dextrose agar; assay type: cell-based, Alternaria alternata; conditions: 25 to 0.0016 μg a.i. per ml agar, 3 to 6 days
# Experimental: as §1, §2, §3
# P. digitatum = assay: as above; assay type: cell-based, Penicillium digitatum; conditions: in as low concentrations as 0.0016 μg/ml, 3 to 6 days
# Experimental: as §1, §2, §3
smiles,measurement,setting,value
"CC[C@H](C)[C@H]1C(=O)NCC(=O)N(C)[C@@H](C(C)C)C(=O)N[C@@H](Cc2ccc(OC)cc2)C(=O)O[C@H](C)C(=O)N2CCCC[C@H]2C(=O)N(C)[C@@H](C(C)C)C(=O)N[C@@H](C(C)C)C(=O)N(C)[C@@H](CC(=O)O)C(=O)N(C)[C@@H](C(C)C)C(=O)N1C [BK 202, cyclo- Pec-MeVal-Val-MeAsp-MeVal-MeIle-Gly-MeVal-TyrOMe-D-Lact!] (cyclo(G[NMeV]Y(Me)[dLac][Pip][NMeV]V[NMeD][NMeV][NMeI]))",fungicidal activity,Deuterornycetous species,most active
same,inhibition of growth,C. beticola,weaker
same,"fungicidal effect (intensity of infection, FIG. 9) compared to both RONILAN® and BASULTRA®",Botrytis cinerea [1],superior
same,stability at pH values above 8,[2]; 25°-55° C.,decreases rapidly
same,stability optimum (pH),"[2]; 25°-55° C., stability seems independent of temperature",~7
same,stability at pH values below 7,"[2]; except at 25° C., where the decrease seems rapid (possibly experimental error)",decreases slowly
same,fungicidal activity,Oornycetous species,practically no activity
same,"fungicidal effect (degree of infection, FIG. 10) compared to RONILAN®",Botrytis cinerea [3],superior
same,inhibition of growth,S. sclerotiorum,very strong
same,"IC50, Chemiluminescent",[4],> 10 µg/mL
same,fungicidal activity,Basidiornycetous species,practically no activity
same,inhibition of growth,A. fumigatus,very strong
same,inhibition of growth,P. sorghina,weaker
same,inhibition of growth,M. fructigena,very strong
same,fungicidal activity,Ascomycetous species,most active
same,inhibition of growth,F. lycopersici,weaker
same,"IC50, ATP","Toxicology IC50, ATP",> 10 µg/mL
same,"fungicidal effect (degree of infection, FIG. 8) compared to ROVRAL®",Botrytis cinerea [5],superior
same,"dermal irritation score, Skintex® test",[6],lowest possible irritation
same,inhibition of growth,A. alternata,weaker
same,inhibition of growth,P. digitatum,very strong
